Results reported in US20120197004A1, “NOVEL ANTI-MICROBIAL PEPTIDOMIMETIC COMPOUNDS AND METHODS TO CALCULATE ANTI-MICROBIAL ACTIVITY” (priority 2006, published 2012).
In brackets after ≈: the same amount, converted by molar mass. Where two headings read alike, the source gives them in different places. Where a SMILES comes first, the peptide text is derived from it. [ ]: non-standard residue; d: D form. The star is where a group is joined. ξ: configuration not given here. Biotin = O=C1N[C@H]2[C@H](CS[C@H]2CCCCC(=O)*)N1; Oic = O=C(O)[C@@H]1C[C@@H]2CCCC[C@@H]2N1; Phe(4-Cl) = N[C@@H](Cc1ccc(Cl)cc1)C(=O)O; Phe(4-F) = N[C@@H](Cc1ccc(F)cc1)C(=O)O; Tic = O=C(O)[C@@H]1Cc2ccccc2CN1; ξTic = O=C(O)C1Cc2ccccc2CN1; ξOic = O=C(O)C1CC2CCCCC2N1; Orn = NCCC[C@H](N)C(=O)O; Dap = NC[C@H](N)C(=O)O; NH(CH2)3NH2 = NCCCN*; βAla = NCCC(=O)O

What was measured:
[1] = test system: Salmonella typhimurium (ATCC 13311); settings: for p(MIC) Salmonella typhimurium: -log(MIC); for MIC Salmonella typhimurium: ATCC 13311
[2] = test system: Mycobacterium ranae (ATCC 110)
[3] = test system: Bacillus subtillis (ATCC 43223); settings: for p(MIC) Bacillus Subtillis: -log(MIC); for MIC Bacillus Subtillis: ATCC 43223
[4] = test system: Staphylococcus aureus Methicillin/Gentamicin/Tetracycline Resistant (ATCC 33592); settings: for p(MIC) Staphylococcus aureus ME/GM/TC resistant: -log(MIC); for MIC Staphylococcus aureus ME/GM/TC resistant: Minimal Inhibitory Concentration, tested at 100-0.1 in 1% DMSO; for Minimum Inhibitory Concentration Staphylococcus aureus ME/GM/TC resistant: in vitro MIC, tested at 100, 30, 10, 3, 1, 0.3 and 0.1 μM in 1% DMSO; for Actual Bioactivity: p(MIC) used in Staphylococcus aureus QSAR model
in vitro [5] = settings: rat, microsomes, pH 7.4
in vitro [6] = settings: mouse, microsomes, pH 7.4
in vitro [7] = settings: dog, microsomes, pH 7.4
in vitro [8] = settings: monkey, microsomes, pH 7.4

Compound: CC(=O)NCCC(=O)N[C@@H](Cc1ccc(F)cc1)C(=O)N1Cc2ccccc2C[C@H]1C(=O)N1[C@H](C(=O)NCCC(=O)N[C@@H](CN)C(=O)N2Cc3ccccc3C[C@H]2C(=O)N2[C@H](C(=O)NCCC(=O)N[C@@H](Cc3ccc(F)cc3)C(=O)N3Cc4ccccc4C[C@H]3C(=O)N3[C@H](C(=O)NCCC(=O)N[C@@H](CN)C(=O)N4Cc5ccccc5C[C@H]4C(=O)N[C@@H](CN)C(=O)N[C@@H](CN)C(=O)N[C@@H](CN)C(=O)N[C@@H](CN)C(N)=O)C[C@@H]4CCCC[C@@H]43)C[C@@H]3CCCC[C@@H]32)C[C@@H]2CCCC[C@@H]21 [FBAB-1Gw, Ac-βAla-Fpa-Tic-Oic-βAla-Dpr-Tic-Oic-βAla-Fpa-Tic-Oic-βAla-Dpr-Tic-Dpr-Dpr-Dpr-Dpr-CONH2] (Ac-[βAla][Phe(4-F)][Tic][Oic][βAla][Dap][Tic][Oic][βAla][Phe(4-F)][Tic][Oic][βAla][Dap][Tic][Dap][Dap][Dap][Dap]-NH2)
- selectivity for Salmonella typhimurium over Mycobacterium ranae ([1]; in vitro): 33 fold
- selectivity for Salmonella typhimurium over Staphylococcus aureus ME/GM/TC resistant ([1]; in vitro): 10 fold
- Minimum Inhibitory Concentration Mycobacterium ranae ([2]; ATCC 110): 100 µM

Compound: CC(=O)NCC(=O)N[C@@H](Cc1ccccc1)C(=O)N1Cc2ccccc2C[C@H]1C(=O)N1[C@H](C(=O)NCC(=O)N[C@@H](CCCCN)C(=O)N2Cc3ccccc3C[C@H]2C(=O)N2[C@H](C(=O)NCC(=O)N[C@@H](Cc3ccccc3)C(=O)N3Cc4ccccc4C[C@H]3C(=O)N3[C@H](C(=O)NCC(=O)N[C@@H](CCCCN)C(=O)N4Cc5ccccc5C[C@H]4C(=O)N[C@@H](CCCCN)C(=O)N[C@@H](CCCCN)C(=O)N[C@@H](CCCCN)C(=O)N[C@@H](CCCCN)C(=O)NCCCN)C[C@@H]4CCCC[C@@H]43)C[C@@H]3CCCC[C@@H]32)C[C@@H]2CCCC[C@@H]21 [FKAB-1L, Ac-GF-Tic-Oic-GK-Tic-Oic-GF-Tic-Oic-GK-Tic-KKKK-CONH—CH2—CH2—CH2—NH2] (Ac-GF[Tic][Oic]GK[Tic][Oic]GF[Tic][Oic]GK[Tic]KKKK-{NH(CH2)3NH2})
- p(MIC) Salmonella typhimurium [1]: 4.52
- MIC Salmonella typhimurium [1]: 30 µM (≈ 74.9 µg/mL)
- p(MIC) Bacillus Subtillis [3]: 5.52
- MIC Bacillus Subtillis [3]: 3.00 µM (≈ 7.49 µg/mL)
- Actual Bioactivity [2]: 5.000
- MIC Mycobacterium ranae ([2]; ATCC 110): 10.00 µM (≈ 25 µg/mL)
- Minimum Inhibitory Concentration Mycobacterium ranae ([2]; ATCC 110): 10 µM
- p(MIC) Staphylococcus aureus ME/GM/TC resistant [4]: 5.00
- MIC Staphylococcus aureus ME/GM/TC resistant [4]: 10.00 µM (≈ 25 µg/mL)
- Minimum Inhibitory Concentration Staphylococcus aureus ME/GM/TC resistant [4]: 10 µM
- Actual Bioactivity [4]: 5.000

Compound: CC(=O)NCC(=O)N[C@@H](Cc1ccccc1)C(=O)N1Cc2ccccc2CC1C(=O)NCC(=O)NCC(=O)N[C@@H](CCCCN)C(=O)N1Cc2ccccc2CC1C(=O)NCC(=O)NCC(=O)N[C@@H](Cc1ccccc1)C(=O)N1Cc2ccccc2CC1C(=O)NCC(=O)NCC(=O)N[C@@H](CCCCN)C(=O)N1Cc2ccccc2CC1C(=O)N[C@@H](CCCCN)C(=O)N[C@@H](CCCCN)C(=O)N[C@@H](CCCCN)C(=O)N[C@@H](CCCCN)C(N)=O (stereo partly drawn) [FKAB-1Gg1, Ac-GF-Tic-G-GK-Tic-G-GF-Tic-G-GK-Tic-KKKK-CONH2] (Ac-GF[ξTic]GGK[ξTic]GGF[ξTic]GGK[ξTic]KKKK-NH2)
- MIC Salmonella typhimurium [1]: 100 µM (≈ 216 µg/mL)
- MIC Bacillus Subtillis [3]: 10.00 µM (≈ 21.6 µg/mL)
- % hemolysis 100/25 μM (first value) (red blood cells): 5.70%/
- % hemolysis 100/25 μM (second value) (red blood cells): 3.80%
- MIC Mycobacterium ranae ([2]; ATCC 110): 30.00 µM (≈ 64.8 µg/mL)

Compound: NCCCC[C@H](NC(=O)[C@H](CCCCN)NC(=O)[C@H](CCCCN)NC(=O)[C@H](CCCCN)NC(=O)C1Cc2ccccc2CN1C(=O)[C@H](CCCCN)NC(=O)CNC(=O)C1CC2CCCCC2N1C(=O)C1Cc2ccccc2CN1C(=O)[C@H](Cc1ccccc1)NC(=O)CNC(=O)C1CC2CCCCC2N1C(=O)C1Cc2ccccc2CN1C(=O)[C@H](CCCCN)NC(=O)CNC(=O)C1CC2CCCCC2N1C(=O)C1Cc2ccccc2CN1C(=O)[C@H](Cc1ccccc1)NC(=O)CNC(=O)CCCC[C@@H]1SC[C@@H]2NC(=O)N[C@@H]21)C(N)=O (stereo partly drawn) [FKAB-1Gl, Biotin-GF-Tic-Oic-GK-Tic-Oic-GF-Tic-Oic-GK-Tic-KKKK-CONH2] (Biotin-GF[ξTic][ξOic]GK[ξTic][ξOic]GF[ξTic][ξOic]GK[ξTic]KKKK-NH2)
- remaining at 0.25 h, 1 μM (in vitro [5]): 73%
- remaining at 0.5 h, 1 μM (in vitro [5]): 83%
- remaining at 1 h, 1 μM (in vitro [5]): 105%
- remaining at 0.25 h, 1 μM (in vitro [6]): 96%
- remaining at 0.5 h, 1 μM (in vitro [6]): 87%
- remaining at 1 h, 1 μM (in vitro [6]): 78%
- remaining at 0.5 h, 1 μM (in vitro [7]): 84%
- remaining at 1 h, 1 μM (in vitro [7]): 80%
- Minimum Inhibitory Concentration Mycobacterium ranae ([2]; ATCC 110): 10 µM
- remaining at 0.25 h, 1 μM (in vitro [8]): 80%
- remaining at 0.5 h, 1 μM (in vitro [8]): 77%
- remaining at 1 h, 1 μM (in vitro [8]): 77%
- Minimum Inhibitory Concentration Staphylococcus aureus ME/GM/TC resistant [4]: 3 µM

Compound: CC(=O)NCC(=O)N[C@@H](Cc1ccccc1)C(=O)NCC(=O)N1C(C(=O)NCC(=O)N[C@@H](CCCCN)C(=O)NCC(=O)N2C(C(=O)NCC(=O)N[C@@H](Cc3ccccc3)C(=O)NCC(=O)N3C(C(=O)NCC(=O)N[C@@H](CCCCN)C(=O)NCC(=O)N[C@@H](CCCCN)C(=O)N[C@@H](CCCCN)C(=O)N[C@@H](CCCCN)C(=O)N[C@@H](CCCCN)C(N)=O)CC4CCCCC43)CC3CCCCC32)CC2CCCCC21 (stereo partly drawn) [FKAB-1Gf1, Ac-GF-G-Oic-GK-G-Oic-GF-G-Oic-GK-G-KKKK-CONH2] (Ac-GFG[ξOic]GKG[ξOic]GFG[ξOic]GKGKKKK-NH2)
- MIC Bacillus Subtillis [3]: 30.00 µM (≈ 61 µg/mL)
- % hemolysis 100/25 μM (first value) (red blood cells): 3.30%/
- % hemolysis 100/25 μM (second value) (red blood cells): 3.3%
- MIC Mycobacterium ranae ([2]; ATCC 110): 100.00 µM (≈ 203 µg/mL)

Compound: CC(=O)NCC(=O)N[C@@H](Cc1ccccc1)C(=O)N1Cc2ccccc2C[C@H]1C(=O)N1[C@H](C(=O)NCC(=O)N[C@@H](CN)C(=O)N2Cc3ccccc3C[C@H]2C(=O)N2[C@H](C(=O)NCC(=O)N[C@@H](Cc3ccccc3)C(=O)N3Cc4ccccc4C[C@H]3C(=O)N3[C@H](C(=O)NCC(=O)N[C@@H](CN)C(=O)N4Cc5ccccc5C[C@H]4C(=O)N[C@@H](CN)C(=O)N[C@@H](CN)C(=O)N[C@@H](CN)C(=O)N[C@@H](CN)C(N)=O)C[C@@H]4CCCC[C@@H]43)C[C@@H]3CCCC[C@@H]32)C[C@@H]2CCCC[C@@H]21 [FKAB-1Gs, Ac-GF-Tic-Oic-G-Dpr-Tic-Oic-GF-Tic-Oic-G-Dpr-Tic-Dpr-DprDpr-Dpr-CONH2] (Ac-GF[Tic][Oic]G[Dap][Tic][Oic]GF[Tic][Oic]G[Dap][Tic][Dap][Dap][Dap][Dap]-NH2)
- Minimum Inhibitory Concentration Mycobacterium ranae ([2]; ATCC 110): 100 µM
- Minimum Inhibitory Concentration Staphylococcus aureus ME/GM/TC resistant [4]: 10 μm μM

Compound: CC(=O)NCC(=O)N[C@@H](Cc1ccccc1)C(=O)N1Cc2ccccc2C[C@H]1C(=O)N1[C@H](C(=O)NCC(=O)N[C@@H](CCCCN)C(=O)N2Cc3ccccc3C[C@H]2C(=O)N2[C@H](C(=O)NCC(=O)N[C@@H](Cc3ccccc3)C(=O)N3Cc4ccccc4C[C@H]3C(=O)N3[C@H](C(=O)NCC(=O)N[C@@H](CCCCN)C(=O)N4Cc5ccccc5C[C@H]4C(=O)N[C@@H](CCCN)C(=O)N[C@@H](CCCN)C(=O)N[C@@H](CCCN)C(=O)N[C@@H](CCCN)C(N)=O)C[C@@H]4CCCC[C@@H]43)C[C@@H]3CCCC[C@@H]32)C[C@@H]2CCCC[C@@H]21 [FKAB-1Gj, Ac-GF-Tic-Oic-GK-Tic-Oic-GF-Tic-Oic-GK-Tic-Orn-Orn-Orn-Orn-CONH2] (Ac-GF[Tic][Oic]GK[Tic][Oic]GF[Tic][Oic]GK[Tic][Orn][Orn][Orn][Orn]-NH2)
- p(MIC) Salmonella typhimurium [1]: 5.00
- MIC Salmonella typhimurium [1]: 10 µM (≈ 23.8 µg/mL)
- p(MIC) Bacillus Subtillis [3]: 6.00
- MIC Bacillus Subtillis [3]: 1.00 µM (≈ 2.38 µg/mL)
- Actual Bioactivity [2]: 5.000
- Minimum Inhibitory Concentration Mycobacterium ranae [2]: 10 µM
- MIC Mycobacterium ranae ([2]; ATCC 110): 10.00 µM (≈ 23.8 µg/mL)
- p(MIC) Staphylococcus aureus ME/GM/TC resistant [4]: 5.00
- MIC Staphylococcus aureus ME/GM/TC resistant [4]: 10.00 µM (≈ 23.8 µg/mL)
- Minimum Inhibitory Concentration Staphylococcus aureus ME/GM/TC resistant [4]: 10 µM
- Actual Bioactivity [4]: 5.000

Compound: CC(=O)NCC(=O)N[C@@H](Cc1ccc(Cl)cc1)C(=O)N1Cc2ccccc2C[C@H]1C(=O)N1[C@H](C(=O)NCC(=O)N[C@@H](CCCCN)C(=O)N2Cc3ccccc3C[C@H]2C(=O)N2[C@H](C(=O)NCC(=O)N[C@@H](Cc3ccc(Cl)cc3)C(=O)N3Cc4ccccc4C[C@H]3C(=O)N3[C@H](C(=O)NCC(=O)N[C@@H](CCCCN)C(=O)N4Cc5ccccc5C[C@H]4C(=O)N[C@@H](CCCCN)C(=O)N[C@@H](CCCCN)C(=O)N[C@@H](CCCCN)C(=O)N[C@@H](CCCCN)C(N)=O)C[C@@H]4CCCC[C@@H]43)C[C@@H]3CCCC[C@@H]32)C[C@@H]2CCCC[C@@H]21 [FKAB-1Go1, Ac-G-Cph-Tic-Oic-GK-Tic-Oic-G-Cph-Tic-Oic-GK-Tic-KKKK-CONH2] (Ac-G[Phe(4-Cl)][Tic][Oic]GK[Tic][Oic]G[Phe(4-Cl)][Tic][Oic]GK[Tic]KKKK-NH2)
- Minimum Inhibitory Concentration Salmonella typhimurium ([1]; in vitro MIC, tested at 100, 30, 10, 3, 1, 0.3 and 0.1 μM in 1% DMSO): not active
- Minimum Inhibitory Concentration Mycobacterium ranae ([2]; ATCC 110): 10 µM
